The text below walks through data of PubChem BioAssay (NCI).

Some test systems named below: 786-0 renal; SN12C renal; DU-145 prostate; OVCAR-8 ovarian; UACC-257 melanoma; SR leukemia; ACHN renal; HCT-15 colon; NCI-H460 lung; A498 renal; T-47D breast; MDA-MB-435; CAKI-1 renal; HT29 colon; NCI-H226 lung; MDA-MB-231 breast; SK-OV-3 ovarian; BT-549 breast; SK-MEL-28 melanoma; NCI-H522 lung.
What all share (test): NCI anticancer screen, dose series, 48 h

Each structure is given as a SMILES string.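 A five-concentration, 48-hour dose response in 96-well plates underlies each endpoint, interpolated linearly between surrounding concentrations. TGI denotes the concentration required for complete inhibition of growth.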 Where a SMILES comes first, the peptide text is derived from it. The star is where a group is joined. Boc = CC(C)(C)OC(=O)*; tBu = CC(C)(C)*

As for `O=C1c2ccccc2-n2c1nc1ccc(Cl)cc1c2=O`, the TGI with 786-0 renal, in the experiment with SN12C renal, in the experiment with DU-145 prostate, in the experiment with OVCAR-8 ovarian, in the experiment on UACC-257 melanoma and in the experiment on SR leukemia was > 100 µM each time. In addition, the TGI in the experiment with ACHN renal is > 100 µM; in the experiment on HCT-15 colon it was > 100 µM; in the experiment with NCI-H460 lung, > 100 µM; in the experiment on A498 renal, > 100 µM; with T-47D breast, > 100 µM; in the experiment on MDA-MB-435 it was 31.1 µM. Moreover, the TGI with CAKI-1 renal, with HT29 colon, in the experiment on NCI-H226 lung, in the experiment with MDA-MB-231 breast, in the experiment with SK-OV-3 ovarian and with BT-549 breast was > 100 µM each time.
Consider `COc1cccc(-c2[nH]c3cc4c(cc3c(=O)c2C(=O)O)OCO4)c1`, for which the TGI with SK-MEL-28 melanoma was > 100 µM; in the experiment with 786-0 renal it was > 100 µM; in the experiment with SN12C renal it was > 100 µM; with DU-145 prostate, > 100 µM; with OVCAR-8 ovarian, 65.9 µM; with UACC-257 melanoma, > 100 µM. Also, the TGI in the experiment on SR leukemia is > 100 µM; in the experiment on ACHN renal, > 100 µM; in the experiment with HCT-15 colon, > 100 µM; in the experiment on NCI-H460 lung, > 100 µM; in the experiment with A498 renal it was 91.6 µM; in the experiment with T-47D breast, > 100 µM. In addition, the TGI in the experiment with MDA-MB-435, with CAKI-1 renal, in the experiment on HT29 colon, in the experiment on NCI-H226 lung, with MDA-MB-231 breast and in the experiment on BT-549 breast was > 100 µM in each case.
As for `CC(OC(C)(C)C)C(NC(=O)C(N)CCCCNC(=O)OC(C)(C)C)C(=O)NC(Cc1ccccc1)C(=O)O` (stereo unspecified) (H-Lys(Boc)-Thr(tBu)-Phe-OH; configuration not given here), the TGI in the experiment on SK-MEL-28 melanoma, in the experiment with 786-0 renal, in the experiment with SN12C renal, in the experiment with DU-145 prostate, with OVCAR-8 ovarian and in the experiment on UACC-257 melanoma was > 100 µM in each case. Moreover, the TGI in the experiment on SR leukemia, in the experiment with ACHN renal, in the experiment with HCT-15 colon, in the experiment with NCI-H460 lung, with T-47D breast and in the experiment on MDA-MB-435 was > 100 µM throughout. Further, the TGI in the experiment with CAKI-1 renal, in the experiment on HT29 colon, in the experiment with NCI-H226 lung, in the experiment with MDA-MB-231 breast, in the experiment on SK-OV-3 ovarian and in the experiment on BT-549 breast was > 100 µM each time.
`CCOP(=O)(/C=C/n1cnc2c(=O)n(C(C)=O)c(N)nc21)OCC`: the TGI in the experiment with SK-MEL-28 melanoma, in the experiment on 786-0 renal, with SN12C renal, with DU-145 prostate, in the experiment on OVCAR-8 ovarian and with UACC-257 melanoma was > 100 µM throughout. Moreover, the TGI in the experiment on ACHN renal, with HCT-15 colon, in the experiment with NCI-H460 lung, with A498 renal, in the experiment on T-47D breast and in the experiment on MDA-MB-435 was > 100 µM in each case. Besides, the TGI with CAKI-1 renal, in the experiment with HT29 colon, with NCI-H226 lung, in the experiment with MDA-MB-231 breast, in the experiment on SK-OV-3 ovarian and in the experiment on NCI-H522 lung was > 100 µM throughout. The TGI with BT-549 breast was > 100 µM.
As to `CC(=O)Nc1sccc1S(=O)(=O)c1ccc(Cl)cc1`, the TGI with SK-MEL-28 melanoma, in the experiment on 786-0 renal, with SN12C renal, in the experiment with DU-145 prostate, with OVCAR-8 ovarian and in the experiment with UACC-257 melanoma was > 100 µM each time. Moreover, the TGI in the experiment on SR leukemia, in the experiment on ACHN renal, with HCT-15 colon, with NCI-H460 lung, with T-47D breast and in the experiment with MDA-MB-435 was > 100 µM in each case. The TGI in the experiment on CAKI-1 renal, in the experiment with HT29 colon, in the experiment on NCI-H226 lung, in the experiment with MDA-MB-231 breast, in the experiment with SK-OV-3 ovarian and in the experiment on NCI-H522 lung was > 100 µM throughout. In addition, the TGI in the experiment on BT-549 breast is > 100 µM.
Turning to `CC(C)CCCC(C)[C@H]1CCC2[C@@H]3CCC4Cc5nc6c(nc5C[C@]4(C)C3CC[C@@]21C)CC1CC[C@@H]2C(CC[C@@]3(C)C2CC[C@@H]3O)[C@@]1(C)C6` (stereo partly specified), the TGI in the experiment on SK-MEL-28 melanoma, with 786-0 renal, in the experiment with SN12C renal, with DU-145 prostate, with OVCAR-8 ovarian and in the experiment on UACC-257 melanoma was > 100 µM throughout. In addition, the TGI with SR leukemia, in the experiment with ACHN renal, in the experiment on HCT-15 colon, with NCI-H460 lung, in the experiment on A498 renal and in the experiment with T-47D breast was > 100 µM each time. Moreover, the TGI in the experiment with MDA-MB-435, with HT29 colon, in the experiment with NCI-H226 lung, in the experiment on MDA-MB-231 breast, in the experiment on SK-OV-3 ovarian and in the experiment with BT-549 breast was > 100 µM throughout.
With `CSC1(Cc2ccccn2)C(=O)Nc2cccc([N+](=O)[O-])c21` (stereo unspecified), the TGI with SK-MEL-28 melanoma, in the experiment on 786-0 renal, with SN12C renal, in the experiment on DU-145 prostate, with OVCAR-8 ovarian and in the experiment with UACC-257 melanoma was > 100 µM in each case. The TGI with SR leukemia, in the experiment on ACHN renal, in the experiment with HCT-15 colon, in the experiment on NCI-H460 lung, with T-47D breast and with MDA-MB-435 was > 100 µM each time. Moreover, the TGI in the experiment on CAKI-1 renal, in the experiment with HT29 colon, in the experiment with NCI-H226 lung, in the experiment on MDA-MB-231 breast, in the experiment on SK-OV-3 ovarian and in the experiment with NCI-H522 lung was > 100 µM in each case. Besides, the TGI in the experiment on BT-549 breast was > 100 µM.
As for `CON(C)C(=O)C(C)NC(=O)OC(C)(C)C` (stereo unspecified), the TGI with SK-MEL-28 melanoma, with 786-0 renal, in the experiment with SN12C renal, with DU-145 prostate, in the experiment on OVCAR-8 ovarian and in the experiment with UACC-257 melanoma was > 100 µM each time. The TGI in the experiment with SR leukemia, in the experiment on ACHN renal, with HCT-15 colon, in the experiment on NCI-H460 lung, in the experiment with A498 renal and in the experiment with T-47D breast was > 100 µM throughout. For the same compound, the TGI in the experiment with MDA-MB-435, in the experiment with HT29 colon, in the experiment with NCI-H226 lung, in the experiment with SK-OV-3 ovarian and in the experiment on BT-549 breast was > 100 µM each time.
